Experimental data published in PubChem BioAssay AID1963973 (Molecular Pharmacology Branch, DTP, NCI, 2024).

Test system: 883617-216-R-J1-PDC tumor spheroids, viability
Test: Anticancer human tumor 883617-216-R-J1-PDC patient-derived bladder carcinoma cell line growth inhibition [PI3K]
Details: spheroids with HUVEC and MSC; for IC50: curve of first compound; for viability, T/C: stronger effect = lower value
Text: Combinatorial screen of targeted agents with the PI3K inhibitors inavolisib, alpelisib, duvelisib, and copanlisib in multi-cell type tumor spheroids
A high-throughput screen of multi-cell type tumor spheroids was designed to identify active combinations of targeted small molecules and PI3K pathway inhibitors. Complex spheroids include a stromal component modeled by human endothelial cells (HUVEC) and fibroblasts modeled by human mesenchymal stem cells (MSCs). The concentration ranges selected for each drug and investigational agent were based upon clinically achievable concentrations if the clinical Cmax of the agent was known.
Compounds. The drugs and investigational agents: inavolisib (NSC800729), alpelisib (NSC765974), duvelisib (NSC772469), copanlisib (NSC816437), ipatasertib (NSC767898), afuresertib (NSC778305), talazoparib (NSC767125), sapanisertib (NSC764658), selumetinib (NSC741078), tovorafenib (DAY101, NSC766906), vemurafenib (NSC761431), ravoxertinib (NSC781343), sotorasib (NSC818433), MRTX1133 (NSC 836407), abemaciclib (NSC 768073), palbociclib (NSC758247), venetoclax (NSC 766270), SY5609 (NSC837396), enzalutamide (NSC755605), and darolutamide (NSC825331), were obtained from the National Cancer Institute (NCI) Developmental Therapeutics Program Chemical Repository. The FDA-approved anticancer drug set is available from the NCI Developmental Therapeutics Program. […] The stock solutions were prepared in dimethyl sulfoxide (DMSO, Sigma-Aldrich, St. Louis, MO, cat. D2650) at 800-fold the tested concentration and stored at -70 degrees C prior to their use. All drugs and investigational agents were tested over a range starting from a high concentration at or near the clinical Cmax and decreasing in half-log increments. If the clinical Cmax for an agent had not been determined, the highest concentration tested was 10 microM.
Cell Culture. All cells were maintained in an incubator at 37 degrees C and 5% CO2 with 95% humidity. The PDC lines were cultured according to standard operating procedures established by the NCI PDMR (https://pdmr.cancer.gov/sops/default.htm). All PDCs were thawed and cultured in Matrigel-coated flasks prepared with a working solution of 1X Ham's F-12 nutrient mix, without supplementation (Invitrogen, Waltham, MA, cat. 11765054), 100 U/mL penicillin-streptomycin (Invitrogen, cat. 15140122), and 2.5% Matrigel (Corning Inc., Corning, NY, cat. 354248) for the first three passages. The 354836-022-R-J1-PDC, 475296-252-R-J1-PDC, and 997726-040-R-J2-PDC lines were cultured in 6A media, which includes advanced DMEM/F-12 (Thermo Fisher Scientific, cat. 12634028), 10 mM HEPES (Thermo Fisher Scientific, cat. 15630080), 1X GlutaMAX supplement (Thermo Fisher Scientific, cat. 35050061), 0.1 mg/mL primocin (InvivoGen, San Diego, CA, cat. ant-pm-2), 10% defined fetal bovine serum, heat inactivated (HyClone Laboratories Inc., Logan, UT, cat. SH30070.03HI), 50% L-WRN conditioned media (ATCC, cat. CRL-3276), 1.25 mM N-Acetyl-L-cysteine (Sigma-Aldrich, cat. A9165), 10 mM nicotinamide (Sigma-Aldrich, cat. N0636), 1X B-27 supplement (Thermo Fisher Scientific, cat. 17504044), 1X N-2 supplement (Thermo Fisher Scientific, cat. 17502048), and 10 microM Y-27632 dihydrochloride (Tocris Bioscience, Bristol, United Kingdom, cat. 1254). The 624824-186-R-J2-PDC line was cultured in 6C/Colon 1B media, which includes all 6A media components plus 50 ng/mL human EGF recombinant protein (Thermo Fisher Scientific, cat. PHG0311). […]

[1] = second compound 0.00316 µM, first compound 0.0316 µM
[2] = second compound 0.00316 µM, first compound 0.1 µM
[3] = second compound 0.00316 µM, first compound 0.316 µM
[4] = second compound 0.00316 µM, first compound 1 µM
[5] = second compound 0.00316 µM, first compound 3.16 µM
[6] = second compound 0.00316 µM, first compound 10 µM
[7] = second compound 0.01 µM, first compound 0.0316 µM
[8] = second compound 0.01 µM, first compound 0.1 µM
[9] = second compound 0.01 µM, first compound 0.316 µM
[10] = second compound 0.01 µM, first compound 1 µM
[11] = second compound 0.01 µM, first compound 3.16 µM
[12] = second compound 0.01 µM, first compound 10 µM
[13] = second compound 0.0316 µM, first compound 0.0316 µM
[14] = second compound 0.0316 µM, first compound 0.1 µM
[15] = second compound 0.0316 µM, first compound 0.316 µM
[16] = second compound 0.0316 µM, first compound 1 µM
[17] = second compound 0.0316 µM, first compound 3.16 µM
[18] = second compound 0.0316 µM, first compound 10 µM
[19] = second compound 0.1 µM, first compound 0.0316 µM
[20] = second compound 0.1 µM, first compound 0.1 µM
[21] = second compound 0.1 µM, first compound 0.316 µM
[22] = second compound 0.1 µM, first compound 1 µM
[23] = second compound 0.1 µM, first compound 3.16 µM
[24] = second compound 0.1 µM, first compound 10 µM
[25] = second compound 0.316 µM, first compound 0.0316 µM
[26] = second compound 0.316 µM, first compound 0.1 µM
[27] = second compound 0.316 µM, first compound 0.316 µM
[28] = second compound 0.316 µM, first compound 1 µM
[29] = second compound 0.316 µM, first compound 3.16 µM
[30] = second compound 0.316 µM, first compound 10 µM
[31] = second compound 1 µM, first compound 0.0316 µM
[32] = second compound 1 µM, first compound 0.1 µM
[33] = second compound 1 µM, first compound 0.316 µM
[34] = second compound 1 µM, first compound 1 µM
[35] = second compound 1 µM, first compound 3.16 µM
[36] = second compound 1 µM, first compound 10 µM
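Note: spheroids exposed to agents for 7 days before the viability read.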

Compound: CC1(C)CCC(CN2CCN(c3ccc(C(=O)NS(=O)(=O)c4ccc(NCC5CCOCC5)c([N+](=O)[O-])c4)c(Oc4cnc5[nH]ccc5c4)c3)CC2)=C(c2ccc(Cl)cc2)C1 + CC(Nc1ccc2c(c1)OCCn1cc(N3C(=O)OCC3C(F)F)nc1-2)C(N)=O
- IC50 (second compound 0.00316 µM): 5.33 µM
- IC50 (second compound 0.01 µM): 4.58 µM
- IC50 (second compound 0.0316 µM): 3.77 µM
- IC50 (second compound 0.1 µM): < 0.0316 µM
- IC50 (second compound 0.316 µM): < 0.0316 µM
- IC50 (second compound 1 µM): < 0.0316 µM
- viability, T/C [1]: 83.5%
- viability, T/C [2]: 61.8%
- viability, T/C [3]: 97.3%
- viability, T/C [4]: 107%
- viability, T/C [5]: 90.2%
- viability, T/C [6]: 4.2%
- viability, T/C [7]: 86.6%
- viability, T/C [8]: 74.8%
- viability, T/C [9]: 87.8%
- viability, T/C [10]: 82.8%
- viability, T/C [11]: 71.8%
- viability, T/C [12]: 3.91%
- viability, T/C [13]: 66.7%
- viability, T/C [14]: 51.6%
- viability, T/C [15]: 65.5%
- viability, T/C [16]: 65.4%
- viability, T/C [17]: 57.8%
- viability, T/C [18]: 5.24%
- viability, T/C [19]: 29.4%
- viability, T/C [20]: 36.4%
- viability, T/C [21]: 41.5%
- viability, T/C [22]: 45.8%
- viability, T/C [23]: 47.5%
- viability, T/C [24]: 2.96%
- viability, T/C [25]: 21.2%
- viability, T/C [26]: 22.1%
- viability, T/C [27]: 22.1%
- viability, T/C [28]: 25.4%
- viability, T/C [29]: 26.4%
- viability, T/C [30]: 2.64%
- viability, T/C [31]: 17.2%
- viability, T/C [32]: 13%
- viability, T/C [33]: 15.3%
- viability, T/C [34]: 14.3%
- viability, T/C [35]: 21.6%
- viability, T/C [36]: 1.47%

Compound: C[C@@H](NC(=O)c1ncnc(N)c1Cl)c1ncc(C(=O)Nc2cc(C(F)(F)F)c(Cl)cn2)s1 + CC(Nc1ccc2c(c1)OCCn1cc(N3C(=O)OCC3C(F)F)nc1-2)C(N)=O
- IC50 (second compound 0.00316 µM): > 10 µM
- IC50 (second compound 0.01 µM): > 10 µM
- IC50 (second compound 0.0316 µM): 6.34 µM
- IC50 (second compound 0.1 µM): 0.366 µM
- IC50 (second compound 0.316 µM): < 0.0316 µM
- IC50 (second compound 1 µM): < 0.0316 µM
- viability, T/C [1]: 86.3%
- viability, T/C [2]: 78.3%
- viability, T/C [3]: 88.9%
- viability, T/C [4]: 99.8%
- viability, T/C [5]: 80%
- viability, T/C [6]: 70.8%
- viability, T/C [7]: 81.2%
- viability, T/C [8]: 89.4%
- viability, T/C [9]: 74.6%
- viability, T/C [10]: 86.2%
- viability, T/C [11]: 70.6%
- viability, T/C [12]: 63.6%
- viability, T/C [13]: 72.2%
- viability, T/C [14]: 73.6%
- viability, T/C [15]: 65.3%
- viability, T/C [16]: 58.8%
- viability, T/C [17]: 55.4%
- viability, T/C [18]: 47.1%
- viability, T/C [19]: 42.4%
- viability, T/C [20]: 49.2%
- viability, T/C [21]: 61.8%
- viability, T/C [22]: 42.3%
- viability, T/C [23]: 36.7%
- viability, T/C [24]: 32.3%
- viability, T/C [25]: 26.1%
- viability, T/C [26]: 22.4%
- viability, T/C [27]: 26.1%
- viability, T/C [28]: 27.4%
- viability, T/C [29]: 27.7%
- viability, T/C [30]: 17.9%
- viability, T/C [31]: 18.2%
- viability, T/C [32]: 15.2%
- viability, T/C [33]: 16.3%
- viability, T/C [34]: 16.9%
- viability, T/C [35]: 16.6%
- viability, T/C [36]: 12.5%
